Results: patent publication US9340590B2 (priority 2011, dated 2016)
Read-outs that look alike come from different tables or passages of the source. Positions of bridges follow the written chain, without caps; N, C: chain ends. Non-standard residues stand in square brackets, D forms with d. Residues, ends and D or L forms follow the SMILES beside them. Phe(4-I) = N[C@@H](Cc1ccc(I)cc1)C(=O)O; Aib = CC(C)(N)C(=O)O

Key:
Experiment in all cases: cell-based
hNav1.7 = hNav1.7 (Homo sapiens, UniProt Q15858); assay type: cell-based; details: IonWorks Quattro, read-out: IWQ Use Nav1.7
hNav1.5 = hNav1.5 (Homo sapiens, UniProt Q14524); details: IonWorks Quattro, read-out: IWQ Use Nav1.5
Chain of hNav1.5 (Q14524 whole entry, looked up): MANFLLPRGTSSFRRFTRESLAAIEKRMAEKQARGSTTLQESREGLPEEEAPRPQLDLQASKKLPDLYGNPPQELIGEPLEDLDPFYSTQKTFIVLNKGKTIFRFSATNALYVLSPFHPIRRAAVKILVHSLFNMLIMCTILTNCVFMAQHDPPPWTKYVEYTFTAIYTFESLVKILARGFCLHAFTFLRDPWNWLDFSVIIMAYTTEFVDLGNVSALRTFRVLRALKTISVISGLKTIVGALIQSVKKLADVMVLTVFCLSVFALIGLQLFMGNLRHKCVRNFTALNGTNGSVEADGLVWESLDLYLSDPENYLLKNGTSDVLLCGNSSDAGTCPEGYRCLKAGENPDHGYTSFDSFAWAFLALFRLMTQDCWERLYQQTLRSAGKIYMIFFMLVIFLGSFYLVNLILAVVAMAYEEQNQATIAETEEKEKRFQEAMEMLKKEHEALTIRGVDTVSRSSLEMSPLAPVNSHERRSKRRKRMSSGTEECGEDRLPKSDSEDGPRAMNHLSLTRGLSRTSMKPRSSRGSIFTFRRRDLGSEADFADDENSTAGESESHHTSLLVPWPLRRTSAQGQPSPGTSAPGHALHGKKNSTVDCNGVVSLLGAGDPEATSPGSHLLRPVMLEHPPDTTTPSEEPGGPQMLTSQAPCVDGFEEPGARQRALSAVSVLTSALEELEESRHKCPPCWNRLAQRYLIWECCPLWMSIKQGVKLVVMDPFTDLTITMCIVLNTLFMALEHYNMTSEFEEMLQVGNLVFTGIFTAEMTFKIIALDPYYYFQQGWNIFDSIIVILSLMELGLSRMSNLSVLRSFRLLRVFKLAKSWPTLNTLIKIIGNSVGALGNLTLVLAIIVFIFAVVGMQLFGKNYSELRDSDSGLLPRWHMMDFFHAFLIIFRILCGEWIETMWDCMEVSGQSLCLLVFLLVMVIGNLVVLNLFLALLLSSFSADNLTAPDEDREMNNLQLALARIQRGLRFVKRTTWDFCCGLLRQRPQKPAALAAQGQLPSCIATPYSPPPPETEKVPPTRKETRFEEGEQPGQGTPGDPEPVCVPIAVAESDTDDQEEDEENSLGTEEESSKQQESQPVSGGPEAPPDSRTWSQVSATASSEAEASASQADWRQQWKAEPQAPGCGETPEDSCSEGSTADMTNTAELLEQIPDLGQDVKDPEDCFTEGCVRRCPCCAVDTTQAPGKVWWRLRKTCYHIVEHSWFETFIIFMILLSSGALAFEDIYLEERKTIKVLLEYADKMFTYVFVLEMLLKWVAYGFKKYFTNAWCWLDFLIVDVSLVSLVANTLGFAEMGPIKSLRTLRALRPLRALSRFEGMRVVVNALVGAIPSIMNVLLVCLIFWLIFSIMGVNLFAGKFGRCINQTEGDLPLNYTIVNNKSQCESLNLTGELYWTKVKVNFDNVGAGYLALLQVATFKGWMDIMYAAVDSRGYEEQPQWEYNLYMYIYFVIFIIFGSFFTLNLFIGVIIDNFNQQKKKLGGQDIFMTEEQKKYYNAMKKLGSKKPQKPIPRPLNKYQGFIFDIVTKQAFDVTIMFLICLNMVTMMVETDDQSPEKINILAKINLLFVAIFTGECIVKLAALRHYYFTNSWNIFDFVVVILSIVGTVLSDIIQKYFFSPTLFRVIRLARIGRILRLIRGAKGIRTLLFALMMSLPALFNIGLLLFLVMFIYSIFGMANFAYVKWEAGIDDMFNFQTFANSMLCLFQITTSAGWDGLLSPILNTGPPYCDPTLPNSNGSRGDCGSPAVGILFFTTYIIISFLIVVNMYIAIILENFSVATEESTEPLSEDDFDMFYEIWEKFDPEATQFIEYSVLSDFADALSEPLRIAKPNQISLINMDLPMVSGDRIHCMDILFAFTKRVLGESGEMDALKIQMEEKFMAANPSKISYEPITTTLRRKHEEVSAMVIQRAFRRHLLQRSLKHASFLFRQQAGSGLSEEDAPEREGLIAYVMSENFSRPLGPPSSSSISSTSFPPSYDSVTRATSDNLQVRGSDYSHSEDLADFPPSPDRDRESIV

hNav1.3 = hNav1.3 (Homo sapiens, UniProt Q9NY46); details: IonWorks Quattro, read-out: IWQ Use Nav1.3
Chain of hNav1.3 (Q9NY46 whole entry, looked up): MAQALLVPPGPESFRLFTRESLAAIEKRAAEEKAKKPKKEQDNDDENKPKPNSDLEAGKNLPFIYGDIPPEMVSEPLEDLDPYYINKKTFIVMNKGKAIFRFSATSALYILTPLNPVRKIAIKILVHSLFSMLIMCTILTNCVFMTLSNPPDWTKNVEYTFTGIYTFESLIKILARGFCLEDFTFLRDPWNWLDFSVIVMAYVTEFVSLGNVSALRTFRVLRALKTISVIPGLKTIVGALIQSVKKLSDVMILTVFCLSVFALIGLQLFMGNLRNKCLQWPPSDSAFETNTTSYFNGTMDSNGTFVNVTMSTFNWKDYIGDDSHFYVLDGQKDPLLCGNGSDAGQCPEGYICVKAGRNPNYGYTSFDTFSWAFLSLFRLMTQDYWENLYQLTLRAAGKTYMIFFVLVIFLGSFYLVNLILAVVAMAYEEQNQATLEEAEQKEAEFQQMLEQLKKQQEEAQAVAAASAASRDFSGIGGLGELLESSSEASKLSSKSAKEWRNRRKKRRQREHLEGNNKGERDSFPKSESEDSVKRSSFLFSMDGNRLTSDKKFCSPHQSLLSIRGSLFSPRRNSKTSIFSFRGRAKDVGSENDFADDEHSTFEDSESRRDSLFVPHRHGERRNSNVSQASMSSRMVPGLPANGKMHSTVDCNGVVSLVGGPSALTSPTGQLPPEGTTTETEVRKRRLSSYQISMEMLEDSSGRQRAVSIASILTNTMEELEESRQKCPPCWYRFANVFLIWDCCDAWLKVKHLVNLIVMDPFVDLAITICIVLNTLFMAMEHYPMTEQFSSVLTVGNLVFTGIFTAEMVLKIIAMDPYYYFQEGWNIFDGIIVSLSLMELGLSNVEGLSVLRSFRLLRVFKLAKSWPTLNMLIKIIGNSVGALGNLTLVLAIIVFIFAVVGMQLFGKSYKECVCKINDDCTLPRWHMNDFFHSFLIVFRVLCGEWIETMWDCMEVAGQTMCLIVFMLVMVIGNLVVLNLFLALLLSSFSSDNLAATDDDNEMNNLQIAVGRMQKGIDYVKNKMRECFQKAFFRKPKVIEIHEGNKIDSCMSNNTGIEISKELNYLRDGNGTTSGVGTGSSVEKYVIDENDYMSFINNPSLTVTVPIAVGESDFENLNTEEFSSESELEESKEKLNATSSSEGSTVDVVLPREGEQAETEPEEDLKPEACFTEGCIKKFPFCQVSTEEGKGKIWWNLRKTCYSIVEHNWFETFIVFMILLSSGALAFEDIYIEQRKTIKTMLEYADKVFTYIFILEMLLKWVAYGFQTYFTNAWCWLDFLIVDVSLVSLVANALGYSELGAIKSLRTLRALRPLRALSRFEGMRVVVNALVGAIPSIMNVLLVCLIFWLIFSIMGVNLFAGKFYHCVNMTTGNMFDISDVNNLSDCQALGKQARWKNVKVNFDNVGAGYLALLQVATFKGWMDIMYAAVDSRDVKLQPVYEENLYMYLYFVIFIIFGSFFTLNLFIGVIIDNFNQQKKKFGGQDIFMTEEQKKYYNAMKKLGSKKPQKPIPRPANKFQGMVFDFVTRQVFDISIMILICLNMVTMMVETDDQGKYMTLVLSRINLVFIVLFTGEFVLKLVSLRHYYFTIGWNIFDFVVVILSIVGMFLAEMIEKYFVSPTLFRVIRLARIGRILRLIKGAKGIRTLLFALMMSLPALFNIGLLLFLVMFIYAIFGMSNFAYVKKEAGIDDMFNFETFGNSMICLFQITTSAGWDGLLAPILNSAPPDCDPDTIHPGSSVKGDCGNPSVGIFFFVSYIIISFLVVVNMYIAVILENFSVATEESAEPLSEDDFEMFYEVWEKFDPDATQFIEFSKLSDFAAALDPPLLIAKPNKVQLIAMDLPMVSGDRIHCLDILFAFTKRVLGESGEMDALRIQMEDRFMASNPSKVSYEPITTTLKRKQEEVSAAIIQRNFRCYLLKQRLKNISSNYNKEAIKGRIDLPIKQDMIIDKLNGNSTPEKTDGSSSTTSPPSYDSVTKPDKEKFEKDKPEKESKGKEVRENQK

[1] = clamped to −110 mV, depolarized to −10 mV, 5 min after compound, n=2
[2] = use-dependent protocol, hNav1.7
[3] = use-dependent protocol, hNav1.5
[4] = use-dependent protocol, hNav1.3

In the case of `CC[C@H](C)[C@@H]1NC(=O)[C@@H]2CSSC[C@@H]3NC(=O)[C@H](C(C)C)NC(=O)[C@H](CC(C)C)NC(=O)[C@H](CC(N)=O)NC(=O)[C@@H]4CCCN4C(=O)[C@H](CCCNC(=N)N)NC(=O)[C@H](CSSC[C@H](NC(=O)[C@@H](N)CC(=O)O)C(=O)N[C@@H](CC(C)C)C(=O)NCC(=O)N[C@@H](Cc4ccccc4)C(=O)N[C@@H](CCCCN)C(=O)N[C@@H](CCCNC(=N)N)C(=O)N[C@@H](CCCCN)C(=O)N2)NC(=O)[C@H](CSSC[C@@H](C(=O)N[C@@H](CCCCN)C(=O)N[C@@H](Cc2ccc(O)cc2)C(=O)N[C@H](C(=O)N[C@@H](Cc2ccccc2)C(N)=O)C(C)C)NC(=O)[C@H](Cc2c[nH]c4ccccc24)NC(=O)[C@H](CCCCN)NC(=O)[C@H](Cc2cnc[nH]2)NC(=O)[C@H]([C@@H](C)O)NC(=O)[C@H](CCCNC(=N)N)NC(=O)[C@H](CO)NC3=O)NC(=O)[C@H](CCCCN)NC(=O)[C@H](CC(=O)O)NC(=O)[C@H](CC(N)=O)NC(=O)[C@H](CC(=O)O)NC(=O)[C@@H]2CCCN2C1=O` [SEQ ID NO: 154] (H-DCLGFKRKCIPDNDKCCRPNLVCSRTHKWCKYVF-NH2; disulfide 2-17, 9-23, 16-30), the IC50 (hNav1.7; [1]) is reported as 14500 nM, the IC50 (hNav1.5; [1]) is reported as 13900 nM and the IC50 (hNav1.3; [1]) is reported as 8490 nM.

With `CC[C@H](C)[C@@H]1NC(=O)[C@@H]2CSSC[C@@H]3NC(=O)[C@H](C(C)C)NC(=O)[C@H](CC(C)C)NC(=O)[C@H](CC(N)=O)NC(=O)[C@@H]4CCCN4C(=O)[C@H](CCCNC(=N)N)NC(=O)[C@H](CSSC[C@H](NC(=O)[C@@H](N)CC(=O)O)C(=O)N[C@@H](CC(C)C)C(=O)NCC(=O)N[C@@H](Cc4ccc(C(F)(F)F)cc4)C(=O)N[C@@H](CC(C)C)C(=O)N[C@@H](CCCNC(=N)N)C(=O)N[C@@H](CCCCN)C(=O)N2)NC(=O)[C@H](CSSC[C@@H](C(=O)N[C@@H](CCCCN)C(=O)N[C@@H](Cc2ccc(O)cc2)C(=O)N[C@H](C(=O)N[C@@H](Cc2ccccc2)C(N)=O)C(C)C)NC(=O)[C@H](Cc2c[nH]c4ccccc24)NC(=O)[C@H](CCCCN)NC(=O)[C@H](Cc2c[nH]cn2)NC(=O)[C@H]([C@@H](C)O)NC(=O)[C@H](CCCNC(=N)N)NC(=O)[C@H](CO)NC3=O)NC(=O)[C@H](CCCCN)NC(=O)[C@H](CC(=O)O)NC(=O)[C@H](CC(N)=O)NC(=O)[C@H](CC(=O)O)NC(=O)[C@@H]2CCCN2C1=O` [compound 668] the IC50 (hNav1.7; [2]) was 180 nM, the IC50 (hNav1.5; [3]) was 4400 nM and the IC50 (hNav1.3; [4]) was 11 nM.

`CC[C@H](C)[C@@H]1NC(=O)[C@@H]2CSSC[C@@H]3NC(=O)[C@H](C(C)C)NC(=O)[C@H](CC(C)C)NC(=O)[C@H](CC(N)=O)NC(=O)[C@@H]4CCCN4C(=O)[C@H](CCCNC(=N)N)NC(=O)[C@H](CSSC[C@H](NC(=O)[C@@H](N)CC(=O)O)C(=O)N[C@@H](CC(C)C)C(=O)NCC(=O)N[C@@H](C4CCCCC4)C(=O)N[C@@H](CCSC)C(=O)N[C@@H](CCCNC(=N)N)C(=O)N[C@@H](CCCCN)C(=O)N2)NC(=O)[C@H](CSSC[C@@H](C(=O)N[C@@H](CCCCN)C(=O)N[C@@H](Cc2ccc(O)cc2)C(=O)N[C@H](C(=O)N[C@@H](Cc2ccccc2)C(N)=O)C(C)C)NC(=O)[C@H](Cc2c[nH]c4ccccc24)NC(=O)[C@H](CCCCN)NC(=O)[C@H](Cc2cnc[nH]2)NC(=O)[C@H]([C@@H](C)O)NC(=O)[C@H](CCCNC(=N)N)NC(=O)[C@H](CO)NC3=O)NC(=O)[C@H](CCCCN)NC(=O)[C@H](CC(=O)O)NC(=O)[C@H](CC(N)=O)NC(=O)[C@H](CC(=O)O)NC(=O)[C@@H]2CCCN2C1=O` [compound 684] showed an IC50 (hNav1.7; [2]) of 130 nM, an IC50 (hNav1.5; [3]) greater than 5000 nM and an IC50 (hNav1.3; [4]) of 360 nM.

`CC[C@H](C)[C@@H]1NC(=O)[C@@H]2CSSC[C@@H]3NC(=O)[C@H](C(C)C)NC(=O)[C@H](CC(C)C)NC(=O)[C@H](CC(N)=O)NC(=O)[C@@H]4CCCN4C(=O)[C@H](CCCNC(=N)N)NC(=O)[C@H](CSSC[C@H](NC(=O)[C@@H](N)CC(=O)O)C(=O)N[C@@H](CC(C)C)C(=O)NCC(=O)NC(C)(C)C(=O)N[C@@H](Cc4ccccc4)C(=O)N[C@@H](CCCNC(=N)N)C(=O)N[C@@H](CCCCN)C(=O)N2)NC(=O)[C@H](CSSC[C@@H](C(=O)N[C@@H](CCCCN)C(=O)N[C@@H](Cc2ccc(O)cc2)C(=O)N[C@H](C(=O)N[C@@H](Cc2ccccc2)C(N)=O)C(C)C)NC(=O)[C@H](Cc2c[nH]c4ccccc24)NC(=O)[C@H](CCCCN)NC(=O)[C@H](Cc2c[nH]cn2)NC(=O)[C@H]([C@@H](C)O)NC(=O)[C@H](CCCNC(=N)N)NC(=O)[C@H](CO)NC3=O)NC(=O)[C@H](CCCCN)NC(=O)[C@H](CC(=O)O)NC(=O)[C@H](CC(N)=O)NC(=O)[C@H](CC(=O)O)NC(=O)[C@@H]2CCCN2C1=O` [compound 604] (H-DCLG[Aib]FRKCIPDNDKCCRPNLVCSRTHKWCKYVF-NH2; disulfide 2-17, 9-23, 16-30) was tested, and the IC50 (hNav1.7; use-dependent block, hNav1.7) was 440 nM, the IC50 (hNav1.5; use-dependent block, hNav1.5) was 6400 nM and the IC50 (hNav1.3; use-dependent block, hNav1.3) was 610 nM.

For `CC[C@H](C)[C@@H]1NC(=O)[C@@H]2CSSC[C@@H]3NC(=O)[C@H](C(C)C)NC(=O)[C@H](CC(C)C)NC(=O)[C@H](CC(N)=O)NC(=O)[C@@H]4CCCN4C(=O)[C@H](CCCNC(=N)N)NC(=O)[C@H](CSSC[C@H](NC(=O)[C@@H](N)CC(=O)O)C(=O)N[C@@H](CC(C)C)C(=O)NCC(=O)N[C@@H](Cc4ccccc4)C(=O)N[C@@H](CCSC)C(=O)N[C@@H](CCCNC(=N)N)C(=O)N[C@@H](CCCCN)C(=O)N2)NC(=O)[C@H](CSSC[C@@H](C(=O)N[C@@H](CCCCN)C(=O)N[C@@H](Cc2ccc(I)cc2)C(=O)N[C@H](C(=O)N[C@@H](Cc2ccccc2)C(N)=O)C(C)C)NC(=O)[C@H](Cc2c[nH]c4ccccc24)NC(=O)[C@H](CCCCN)NC(=O)[C@H](Cc2c[nH]cn2)NC(=O)[C@H]([C@@H](C)O)NC(=O)[C@H](CCCNC(=N)N)NC(=O)[C@H](CO)NC3=O)NC(=O)[C@H](CCCCN)NC(=O)[C@H](CC(=O)O)NC(=O)[C@H](CC(N)=O)NC(=O)[C@H](CC(=O)O)NC(=O)[C@@H]2CCCN2C1=O` [compound 381] (H-DCLGFMRKCIPDNDKCCRPNLVCSRTHKWCK[Phe(4-I)]VF-NH2; disulfide 2-17, 9-23, 16-30), the IC50 (hNav1.7; Table 25, use, […]) was 30 nM, the IC50 (hNav1.5; Table 25, use, […]) was 4440 nM and the IC50 (hNav1.3; Table 25, use, […]) was 10 nM.

With `CC[C@H](C)[C@@H]1NC(=O)[C@@H]2CSSC[C@@H]3NC(=O)[C@H](C(C)C)NC(=O)[C@H](CC(C)C)NC(=O)[C@H](CC(N)=O)NC(=O)[C@@H]4CCCN4C(=O)[C@H](CCCNC(=N)N)NC(=O)[C@H](CSSC[C@H](NC(=O)[C@@H](N)CC(=O)O)C(=O)N[C@@H](CC(C)C)C(=O)NCC(=O)N[C@@H](C)C(=O)N[C@@H](Cc4ccccc4)C(=O)N[C@@H](CCCNC(=N)N)C(=O)N[C@@H](CCCCN)C(=O)N2)NC(=O)[C@H](CSSC[C@@H](C(=O)N[C@@H](CCCCN)C(=O)N[C@@H](Cc2ccc(O)cc2)C(=O)N[C@H](C(=O)N[C@@H](Cc2ccccc2)C(=O)O)C(C)C)NC(=O)[C@H](Cc2c[nH]c4ccccc24)NC(=O)[C@H](CCCNC(=N)N)NC(=O)[C@H](Cc2c[nH]cn2)NC(=O)[C@H]([C@@H](C)O)NC(=O)[C@H](CCCNC(=N)N)NC(=O)[C@H](CO)NC3=O)NC(=O)[C@H](CCCCN)NC(=O)[C@H](CC(=O)O)NC(=O)CNC(=O)[C@H](CC(=O)O)NC(=O)[C@@H]2CCCN2C1=O` [compound 840] the IC50 (hNav1.7; use-dependent block, hNav1.7) was greater than 5000 nM, the IC50 (hNav1.5; use-dependent block, hNav1.5) was greater than 5000 nM and the IC50 (hNav1.3; use-dependent block, hNav1.3) was 1500 nM.

`CC[C@H](C)[C@@H]1NC(=O)[C@@H]2CSSC[C@@H]3NC(=O)[C@H](C(C)C)NC(=O)[C@H](CC(C)C)NC(=O)[C@H](CC(N)=O)NC(=O)[C@@H]4CCCN4C(=O)[C@H](CCCNC(=N)N)NC(=O)[C@H](CSSC[C@H](NC(=O)[C@@H](N)CC(=O)O)C(=O)N[C@@H](CC(C)C)C(=O)NCC(=O)N[C@@H](C)C(=O)N[C@@H](CCSC)C(=O)N[C@@H](CCCNC(=N)N)C(=O)N[C@@H](CCCCN)C(=O)N2)NC(=O)[C@H](CSSC[C@@H](C(=O)N[C@@H](CCCCN)C(=O)N[C@@H](Cc2ccc(O)cc2)C(=O)N[C@H](C(=O)N[C@@H](Cc2ccccc2)C(N)=O)C(C)C)NC(=O)[C@H](Cc2c[nH]c4ccccc24)NC(=O)[C@H](Cc2ccc(O)cc2)NC(=O)[C@H](Cc2c[nH]cn2)NC(=O)[C@H]([C@@H](C)O)NC(=O)[C@H](CCCNC(=N)N)NC(=O)[C@H](CO)NC3=O)NC(=O)[C@H](CCCCN)NC(=O)[C@H](CC(=O)O)NC(=O)[C@H](CC(N)=O)NC(=O)[C@H](CC(=O)O)NC(=O)[C@@H]2CCCN2C1=O` [compound 765] (H-DCLGAMRKCIPDNDKCCRPNLVCSRTHYWCKYVF-NH2; disulfide 2-17, 9-23, 16-30) was tested, and the IC50 (hNav1.7; use-dependent block, hNav1.7) was 790 nM, the IC50 (hNav1.5; use-dependent block, hNav1.5) was 42000 nM and the IC50 (hNav1.3; use-dependent block, hNav1.3) was 1400 nM.
